US11532406B2, “High specific activity preparation of F-18 tetrafluoroborate” (Mayo Foundation for Medical Education and Research, priority 2016, dated 2022)
Several values for one entry are separate records, joined by “and”; a condition that tells them apart may be missing. Equal entries are not always repeated. Marks after values point to notes of the source that are not given here.

Tests used:
[1] = Estimated plasma / in vivo concentration of TFB after ~400 MBq ^18F-TFB; design: species or system human; conditions: specific activity of 8 GBq/μmol, ~400 MBq administered dose
[2] = Measurements in venous blood and urine samples, HPLC metabolite analysis; assay type: in vivo, human; conditions: for Urine (% Dose), Accumulative: end of study (~250 min)
Description: Urine was collected after each PET/CT scan (approximately 55, 160, 250 min), and venous blood samples were collected at 40, 145 and 235 min, post-injection, as shown in FIG. 13. Blood samples (3-4 mL) were collected in heparinized tubes and placed on ice. The blood samples were centrifuged at 3000 g for 5 min to obtain plasma. Urine was measured for urine volume and radioactivity concentration as measured in a calibrated gamma counter. Analysis for metabolites in plasma and urine was performed by ion-chromatography HPLC, allowing estimation of the fraction of radioactivity as nonmetabolized ^18F-TFB.

[3] = Radiation dosimetry estimation (organ residence times, OLINDA); assay type: in vivo, human; conditions: for Residence Time, Bladder: bladder emptying model, 3.5 h voiding period; for Estimated absorbed radiation dose, Urinary Bladder Wall: bladder voiding interval of 3.5 h
Description: Radiation dosimetry estimates were calculated from organ residence times using OLINDA software (Ver. 1.1), assuming a bladder voiding interval of 3.5 h. Gender-specific organ masses for the conversion of SUV to disintegrations per organ per unit radioactivity administered (Bq-hr/Bq) were taken from Schlein et al. (15).
Bladder residence time was estimated by the bladder emptying model within the OLINDA software, assuming a 3.5 h bladder voiding period. The dose-critical organ is thyroid, with dose estimates of 0.26 and 0.36 mSv/MBq in males and females, respectively. […] Effective dose was higher in females (0.065 mSv/MBq) relative to males (0.036 mSv/MBq).

[4] = ~400 MBq ^18F-TFB synthesized by the conventional method, human subject; Jauregui-Osoro et al. (14); cited from earlier work
[5] = Measurements in venous blood and urine samples, HPLC metabolite analysis; assay type: in vivo, human; conditions: all urine samples, approximately 50, 160, 250 min

With F[B-](F)(F)[18F] [^18F-TFB, ^18F-tetrafluoroborate] the “estimated in vivo concentration of TFB” value [1] was ~0.02 µM, the “% Intact ^18F-TFB, Plasma” value ([2]; females, 40 min) was 97 ± 3^c % and the “Plasma (SUV)” value ([2]; females, 40 min) was 3.8 ± 1.0 SUV. For the same molecule, the “Whole blood (SUV)” value ([2]; females, 40 min) was 3.1 ± 0.9 SUV, the “Urine (% Dose)” value ([2]; females, 40 min column (urine collected ~10 min later)) was 16 ± 3 % Dose and the “% Intact ^18F-TFB, Urine” value ([2]; females, 40 min column (urine ~10 min later)) was 98 ± 1%. The “Plasma (SUV)” value ([2]; females, 145 min) was 2.1 ± 0.5 SUV, the “Whole blood (SUV)” value ([2]; females, 145 min) was 1.7 ± 0.4 SUV and the “Urine (% Dose)” value ([2]; females, 145 min column (urine collected ~10 min later)) was 18 ± 3^ % Dose. The “% Intact ^18F-TFB, Urine” value ([2]; females, 145 min column (urine ~10 min later)) was 98 ± 1%, the “Plasma (SUV)” value ([2]; females, 235 min) was 1.7 ± 0.5 SUV and the “Whole blood (SUV)” value ([2]; females, 235 min) was 1.4 ± 0.4 SUV. The “Urine (% Dose)” value ([2]; females, 235 min column (urine collected ~10 min later)) was 12 ± 2 % Dose, the “% Intact ^18F-TFB, Urine” value ([2]; females, 235 min column (urine ~10 min later)) was 97 ± 2% and the “Urine (% Dose), Accumulative” value ([2]; females) was 47±7 % Dose. The “% Intact ^18F-TFB, Plasma” value ([2]; males, 40 min) was 97 ± 2%, the “Plasma (SUV)” value ([2]; males, 40 min) was 3.8 ± 0.2 SUV and the “Whole blood (SUV)” value ([2]; males, 40 min) was 3.0 ± 0.2 SUV. For the same molecule, the “Urine (% Dose)” value ([2]; males, 40 min column (urine collected ~10 min later)) was 15 ± 2^b % Dose, the “% Intact ^18F-TFB, Urine” value ([2]; males, 40 min column (urine ~10 min later)) was 96 ± 2% and the “Plasma (SUV)” value ([2]; males, 145 min) was 2.8 ± 0.3 SUV. The “Whole blood (SUV)” value ([2]; males, 145 min) was 2.1 ± 0.2 SUV, the “Urine (% Dose)” value ([2]; males, 145 min column (urine collected ~10 min later)) was 13 ± 3 % Dose and the “% Intact ^18F-TFB, Urine” value ([2]; males, 145 min column (urine ~10 min later)) was 97 ± 2%. The “Plasma (SUV)” value ([2]; males, 235 min) was 2.0 ± 0.1 SUV, the “Whole blood (SUV)” value ([2]; males, 235 min) was 1.7 ± 0.2 SUV and the “Urine (% Dose)” value ([2]; males, 235 min column (urine collected ~10 min later)) was 10 ± 2^b % Dose. For the same molecule, the “% Intact ^18F-TFB, Urine” value ([2]; males, 235 min column (urine ~10 min later)) was 98 ± 1%, the “Urine (% Dose), Accumulative” value ([2]; males) was 40±4 % Dose and 40 ± 4^b % Dose and the “^18F-labeled metabolites in blood and urine (HPLC)” value ([2]; over the length of the study (4 h)) was “insignificant”. The “radioactivity as metabolically intact ^18F-TFB in plasma” value ([2]; plasma samples at 40 min p.i.) was > 97%, the “Effective Dose” value ([3]; females) was 0.065 mSv/MBq and 0.064 mSv/MBq and the “Estimated absorbed radiation dose, Adrenals” value ([3]; females) was 0.012 mSv/MBq. The “Estimated absorbed radiation dose, Brain” value ([3]; females) was 0.005 mSv/MBq, the “Estimated absorbed radiation dose, Breasts” value ([3]; females) was 0.028 mSv/MBq and the “Estimated absorbed radiation dose, Gallbladder Wall” value ([3]; females) was 0.022 mSv/MBq. For the same molecule, the “Estimated absorbed radiation dose, Heart Wall” value ([3]; females) was 0.030 mSv/MBq, the “Estimated absorbed radiation dose, Kidneys” value ([3]; females) was 0.052 mSv/MBq and the “Estimated absorbed radiation dose, Liver” value ([3]; females) was 0.033 mSv/MBq. The “Estimated absorbed radiation dose, Lower Large Intestine Wall” value ([3]; females) was 0.015 mSv/MBq, the “Estimated absorbed radiation dose, Lungs” value ([3]; females) was 0.014 mSv/MBq and the “Estimated absorbed radiation dose, Muscle” value ([3]; females) was 0.011 mSv/MBq. For the same molecule, the “Estimated absorbed radiation dose, Osteogenic Cells” value ([3]; females) was 0.009 mSv/MBq, the “Estimated absorbed radiation dose, Ovaries” value ([3]; females) was 0.020 mSv/MBq and the “Estimated absorbed radiation dose, Pancreas” value ([3]; females) was 0.043 mSv/MBq. For the same molecule, the “Estimated absorbed radiation dose, Red Marrow” value ([3]; females) was 0.008 mSv/MBq, the “Estimated absorbed radiation dose, Skin” value ([3]; females) was 0.004 mSv/MBq and the “Estimated absorbed radiation dose, Small Intestine Wall” value ([3]; females) was 0.066 mSv/MBq. For the same molecule, the “Estimated absorbed radiation dose, Spleen” value ([3]; females) was 0.047 mSv/MBq, the “Estimated absorbed radiation dose, Stomach Wall” value ([3]; females) was 0.184 mSv/MBq and the “Estimated absorbed radiation dose, Thymus” value ([3]; females) was 0.005 mSv/MBq. The “Estimated absorbed radiation dose, Thyroid” value ([3]; females) was 0.36 mSv/MBq, the “Estimated absorbed radiation dose, Total Body” value ([3]; females) was 0.011 mSv/MBq and the “Estimated absorbed radiation dose, Upper Large Intestine Wall” value ([3]; females) was 0.109 mSv/MBq. For the same molecule, the “Estimated absorbed radiation dose, Uterus” value ([3]; females) was 0.022 mSv/MBq, the “Residence Time, Bone” value ([3]; females) was 3.1 ± 0.3 min and the “Residence Time, Brain” value ([3]; females) was 1.3 ± 0.2 min. The “Residence Time, Breast” value ([3]; females) was 2.8 ± 0.9 min, the “Residence Time, Gallbladder” value ([3]; females) was 0.09 ± 0.04 min and the “Residence Time, Intestines” value ([3]; females) was 13 ± 7 min. The “Residence Time, Kidney” value ([3]; females) was 3.9 ± 0.8 min, the “Residence Time, Liver” value ([3]; females) was 10 ± 2 min and the “Residence Time, Lung” value ([3]; females) was 2.4 ± 0.2 min. For the same molecule, the “Residence Time, Muscle” value ([3]; females) was 26 ± 8 min, the “Residence Time, Myocardium” value ([3]; females) was 1.8 ± 0.3 min and the “Residence Time, Pancreas” value ([3]; females) was 0.58 ± 0.08 min. The “Residence Time, Parotid” value ([3]; females) was 3.3 ± 1.2 min, the “Residence Time, Spleen” value ([3]; females) was 1.6 ± 0.2 min and the “Residence Time, Stomach” value ([3]; females) was 24 ± 12 min. The “Residence Time, Thyroid” value ([3]; females) was 2.3 ± 0.9 min, the “Residence Time, Bladder” value ([3]; females) was 19 ± 4 min and the “Estimated absorbed radiation dose, Urinary Bladder Wall” value ([3]; females) was 0.22 mSv/MBq. For the same molecule, the “Effective Dose” value ([3]; males) was 0.036 mSv/MBq, the “Estimated absorbed radiation dose, Adrenals” value ([3]; males) was 0.008 mSv/MBq and the “Estimated absorbed radiation dose, Brain” value ([3]; males) was 0.004 mSv/MBq. For the same molecule, the “Estimated absorbed radiation dose, Breasts” value ([3]; males) was 0.002 mSv/MBq, the “Estimated absorbed radiation dose, Gallbladder Wall” value ([3]; males) was 0.012 mSv/MBq and the “Estimated absorbed radiation dose, Heart Wall” value ([3]; males) was 0.024 mSv/MBq. The “Estimated absorbed radiation dose, Kidneys” value ([3]; males) was 0.049 mSv/MBq, the “Estimated absorbed radiation dose, Liver” value ([3]; males) was 0.021 mSv/MBq and the “Estimated absorbed radiation dose, Lower Large Intestine Wall” value ([3]; males) was 0.009 mSv/MBq. The “Estimated absorbed radiation dose, Lungs” value ([3]; males) was 0.009 mSv/MBq, the “Estimated absorbed radiation dose, Muscle” value ([3]; males) was 0.008 mSv/MBq and the “Estimated absorbed radiation dose, Osteogenic Cells” value ([3]; males) was 0.008 mSv/MBq. For the same molecule, the “Estimated absorbed radiation dose, Pancreas” value ([3]; males) was 0.034 mSv/MBq, the “Estimated absorbed radiation dose, Red Marrow” value ([3]; males) was 0.005 mSv/MBq and the “Estimated absorbed radiation dose, Skin” value ([3]; males) was 0.003 mSv/MBq. For the same molecule, the “Estimated absorbed radiation dose, Small Intestine Wall” value ([3]; males) was 0.027 mSv/MBq, the “Estimated absorbed radiation dose, Spleen” value ([3]; males) was 0.033 mSv/MBq and the “Estimated absorbed radiation dose, Stomach Wall” value ([3]; males) was 0.076 mSv/MBq. The “Estimated absorbed radiation dose, Testes” value ([3]; males) was 0.005 mSv/MBq, the “Estimated absorbed radiation dose, Thymus” value ([3]; males) was 0.004 mSv/MBq and the “Estimated absorbed radiation dose, Thyroid” value ([3]; males) was 0.26 mSv/MBq. The “Estimated absorbed radiation dose, Total Body” value ([3]; males) was 0.008 mSv/MBq, the “Estimated absorbed radiation dose, Upper Large Intestine Wall” value ([3]; males) was 0.045 mSv/MBq and the “Residence Time, Bone” value ([3]; males) was 4.6 ± 1.3 min. For the same molecule, the “Residence Time, Brain” value ([3]; males) was 1.2 ± 0.4 min, the “Residence Time, Gallbladder” value ([3]; males) was 0.06 ± 0.03 min and the “Residence Time, Intestines” value ([3]; males) was 5.7 ± 1.9 min. For the same molecule, the “Residence Time, Kidney” value ([3]; males) was 4.2 ± 1.2 min, the “Residence Time, Liver” value ([3]; males) was 8.3 ± 3.9 min and the “Residence Time, Lung” value ([3]; males) was 2.1 ± 0.7 min. The “Residence Time, Muscle” value ([3]; males) was 36 ± 14 min, the “Residence Time, Myocardium” value ([3]; males) was 2.1 ± 0.6 min and the “Residence Time, Pancreas” value ([3]; males) was 0.7 ± 0.3 min. The “Residence Time, Parotid” value ([3]; males) was 1.7 ± 1.1 min, the “Residence Time, Spleen” value ([3]; males) was 1.5 ± 0.4 min and the “Residence Time, Stomach” value ([3]; males) was 11 ± 5 min. The “Residence Time, Thyroid” value ([3]; males) was 2.0 ± 0.7 min, the “Residence Time, Bladder” value ([3]; males) was 17 ± 2 min and the “Estimated absorbed radiation dose, Urinary Bladder Wall” value ([3]; males) was 0.14 mSv/MBq. The “estimated plasma concentration of TFB” value [4] was ~0.1 µM and the “radioactivity in the form of ^18F-TFB in urine” value [5] was > 97%.
